Measurements from patent US20260328779A1, “METHODS AND COMPOSITIONS FOR THE DIAGNOSIS AND TREATMENT OF IGA NEPHROPATHY” (Beth Israel Deaconess Medical Center, Inc., priority 2022, published 2026).

Legend:
anti-Tn CICs = experiment: Dissociation of anti-Tn CICs by glycomimetic treatment (BN-APAGE-WB); assay type: biochemical, human; settings: 100 mM, 2 h at 4° C.; anti-Tn CICs from IgAN patients
Protocol: Furthermore, it was tested whether the anti-Tn IgM immune complexes can be dissociated from Tn(+)IgA1 using compounds that mimic the Tn antigen-glycomimetics. For this purpose, the anti-Tn CICs were affinity-purified from the sera of IgAN patients; the anti-Tn CICs were treated with mock, α-methylGalNAc (glycomimetic compound, αGalNAc), or α-methylGlcNAc (control compound, αGlcNAc), followed by BN-APAGE-WB and probing for IgM, and IgA. […] An IgA1 signal was unable to be detected in mock and α-methylGlcNAc-treated samples (FIG. 5F, lane 1 and 3, bottom), indicating the IgA1 epitopes may be buried within the CICs and thus not available in this native page set-up for WB detection.
Samples (~0.1 mg) or for plain serum (1:200 dilution in PBS, […]) run on BN-APAGE were transferred onto activated PVDF membrane (Cat #IPVH00010, EMD Millipore, wet-transfer system, 40 V for 2 h). The membranes were quickly destained with 100% methanol, washed with TBST, and blocked with 5% (w/vol) non-fat milk in TBST for 1 h at RT. […]
For glycomimetic treatment, purified anti-Tn CICs (~0.1 mg) was pretreated with α-methylGalNAc (100 mM), α-methylGlcNAc (100 mM), or mock in PBS for 2 h at 4° C. on a rotator (10 rpm) and the samples were analyzed by BN-APAGE-WB and probed for IgM and IgA.

anti-Tn antibodies = experiment: Inhibition of anti-Tn antibody binding to Tn(+)matrix beads (fluorescent anti-IgM imaging); settings: 20 mM preincubation, 30 min on ice; anti-human IgM detection
From the text: To investigate whether the interaction of the anti-Tn antibodies to the Tn(+)matrix is Tn antigen-dependent, fluorescent-tagged secondary antibodies were used to image the antibodies bound to the Tn(+)matrix. Strong staining for bound IgM (FIG. 3C, upper panel, green fluorescent) was observed, but no significant staining for either IgG or IgA (FIG. 3C, middle and bottom panels). The IgG and IgA1 levels in the bound material are thus either relatively low or these antigens could be cryptic within complexes and inaccessible in the context of the beads. […]
~50 ml of human sera was mixed with 1 ml of Tn(+)matrix beads (50% slurry in PBS) at 4° C. […] The concentration of eluted protein was determined by BCA assay (Cat #23225, Thermo Fisher Scientific). Each fraction (Input, Flow through (FT), Washes) was proportionally loaded, except elution 10 ml, and analyzed on SDS-PAGE, and stained with Coomassie, or transferred to nitrocellulose membrane (Cat #1704158, Bio-Rad) using Trans-Blot Turbo Transfer System (Bio-Rad). […] After washing 3× with TBST for 10 min, the signals were analyzed on an Amersham™ Imager 600 (GE Healthcare Life Sciences) using SuperSignal™ West Pico chemiluminescent substrate (Cat #34578, Thermo Scientific). […] The beads were washed twice with chilled 1 ml of PBS, and analyzed using a microscope (AMG EVOS FL digital inverted microscope, Fisher Scientific, ×100 magnification). […]

Q: Which results are given for `CO[C@H]1O[C@H](CO)[C@H](O)[C@H](O)[C@H]1NC(C)=O` [α-methylGalNAc]?
A: dissociation of Tn(+)IgA1 from anti-Tn CICs (anti-Tn CICs): caused dissociation of the Tn(+)IgA1 from anti-Tn IgM immune complexes; inhibition of binding of antibodies to the Tn(+)matrix (anti-Tn antibodies): completely inhibited
